Results from article PMC4967029 (Drug testing and analysis, 2015).
Read-outs that look alike come from different tables or passages of the source.

Assays:
[1] = for time of peak in saliva post-chewing: after one serving of betel nut/quid, n=4; for detected in saliva above the limit of detection up to (time after chewing): all participants
[2] = Urine time course of betel biomarkers after betel chewing; conditions: for return to baseline levels in urine (time post-chewing) / time of peak in urine post-chewing: participant 1
[3] = Hair analysis for betel related compounds; type: in vivo, human; conditions: for levels in hair: hair sample from a tobacco consumer
[4] = cited from earlier work; for elimination half-life (t1/2): human urine
[5] = Stability study of betel alkaloid standards in MeOH, HCl and NaOH at 45°C; type: physicochemical; conditions: 1N NaOH; for fate of the carboxylic acids in basic conditions: after 24 h
[6] = after infusion; cited from earlier work

Structure (SMILES)	elimination half-life (t1/2) [4]	return to baseline levels in saliva (time post-chewing) ([1]; saliva)	time of peak in saliva post-chewing ([1]; saliva)	detected in saliva above the limit of detection up to (time after chewing) ([1]; saliva)	return to baseline levels in urine (time post-chewing) [2]	time of peak in urine post-chewing [2]	also measured
CN1CCCC(C(=O)O)C1 (stereo not shown) [NMNA, N-methylnipecotic acid]	7.9 h	–	–	–	–	–	detection in saliva samples ([1]; saliva, LC-MS): failed; detection in urine samples ([2]; LC-MS): failed; detection in hair samples ([3]; hair of participants who chewed betel nuts at least once daily for ½-2 h): could not detect; urinary NMNA excretion ([4]; subjects consumed water extracts of areca nuts): 1298 ng/mg creatinine; urinary excretion of NMNA relative to that of arecaidine ([4]; urine): < 25%
CN1CCC=C(C(=O)O)C1 [arecaidine]	4.3 h	8 h	≤ 2 h	up to 8 h	approximately 8 h	approximately 2 h	fate of the carboxylic acids in basic conditions [5]: disappeared
COC(=O)C1=CCCN(C)C1 [arecoline]	0.97 h	8 h	≤ 2 h	up to 8 h	approximately 8 h	approximately 2 h	stability in basic conditions [5]: not stable; time to hydrolysis to the carboxylic acid [5]: up to 1 hour; disappearance of arecoline from plasma [6]: ≥ 15 min
C=CCc1ccc(OC)c(OC2OC(C(=O)O)C(O)C(O)C2O)c1 (stereo not shown) [chavibetol glucuronide]	–	–	–	–	approximately 8 h	approximately 2 h	–
C=CCc1ccc(OC)c(O)c1 [chavibetol]	–	2 h	0.5 to 1 h	–	–	–	detection in saliva ([1]; participant 2, who chewed exclusively betel nut): absence; detection in saliva ([1]; participants 1, 3 and 4, who consumed Piper betle leaves in their BQ): detected
CN1C(=O)CC[C@H]1c1cccnc1 [cotinine]	–	–	–	–	–	–	levels in hair [3]: high levels
O=C(O)C1=CCCNC1 [guvacine]	–	8 h	≤ 2 h	up to 8 h	approximately 8 h	approximately 2 h	fate of the carboxylic acids in basic conditions [5]: disappeared
COC(=O)C1=CCCNC1 [guvacoline]	–	8 h	≤ 2 h	up to 8 h	approximately 8 h	approximately 2 h	stability in basic conditions [5]: not stable; time to hydrolysis to the carboxylic acid [5]: up to 1 hour
CN1CCC[C@H]1c1cccnc1 [nicotine]	–	–	–	–	–	–	levels in hair [3]: high levels
